Measured values from paper PMC10584882 (Communications Biology, 2023).
Where “and” joins values, the source holds several entries; their conditions need not be identical. Equal entries are not always repeated.

What was measured:
[1] = system: SARS-CoV-2; assay: Viral loading determination via RT-qPCR in VERO-CCL81 cells; format: cell-based; conditions: for Viral titer (% control): VERO CCL81, RT-qPCR, experiments 1 and 2
[2] = system: LC-HK2 cells; assay: Cell viability assay (CellTiter-Glo), LC-HK2; format: cell-based, human; conditions: for Cell viability (% control): LC-HK2, 72 h, replicates
Method: VERO-CCL81 was seeded in 96-well plates at a density of 1.5×10^4 cells/well, while LC-HK2 was seeded at a density of 3×10^4 cells/well, following 24 h incubation at 37 °C and 5% CO2 atmosphere. The cell culture media was replaced by serial dilutions of the compounds and the cell viability was determined 72 h post-treatment via CellTiter-Glo® Luminescent Cell Viability Assay (Promega), following the manufacturer’s instructions. Luminescent signal was recorded using a CLARIOstar multi-mode microplate reader (BMG Labtech, Germany). Graphs were generated using GraphPad Prism software version 8.0 (La Jolla, CA, USA, www.graphpad.com). Samples deemed to be technical failures and extreme outlier were removed.

[3] = system: SARS-CoV-2-GFP; assay: microbe, parasite or virus in culture; format: cell-based; conditions: Severe acute respiratory syndrome coronavirus 2, Vero C1008, mean with standard error, read-out: VERO E6 EC50
[4] = biological target: T1, human CatV (Homo sapiens, UniProt O60911); assay: Cathepsin inhibition test, CatV; format: biochemical; conditions: Fig. S3 panel c, single replicates
T1 construct: made in house

[5] = system: SARS-CoV-2; assay: Viral loading determination via RT-qPCR in LC-HK2 cells; format: cell-based; conditions: for Viral titer (% control): LC-HK2, RT-qPCR
[6] = biological target: T2, human CatK (Homo sapiens, UniProt P43235); assay: Cathepsin inhibition test, CatK; format: biochemical; conditions: Fig. S3 panel a, single replicates
T2 construct: made in house
T2 sequence (P43235 115-329): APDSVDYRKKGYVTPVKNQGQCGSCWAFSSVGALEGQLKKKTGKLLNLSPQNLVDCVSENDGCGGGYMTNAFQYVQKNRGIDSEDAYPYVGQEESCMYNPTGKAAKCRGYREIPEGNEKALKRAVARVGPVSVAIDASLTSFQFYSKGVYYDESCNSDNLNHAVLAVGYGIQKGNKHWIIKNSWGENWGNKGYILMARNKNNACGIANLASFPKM

T1 sequence (O60911 114-334): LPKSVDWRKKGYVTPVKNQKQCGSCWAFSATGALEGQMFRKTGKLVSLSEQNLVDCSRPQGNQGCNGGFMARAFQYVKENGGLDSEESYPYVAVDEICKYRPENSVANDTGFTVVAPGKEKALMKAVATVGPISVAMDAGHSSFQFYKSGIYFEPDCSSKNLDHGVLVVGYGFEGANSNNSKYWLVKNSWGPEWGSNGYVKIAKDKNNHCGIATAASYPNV

SMILES: CCCC[C@@H](C=O)NC(=O)[C@H](CC(C)C)NC(=O)OCc1ccccc1 [Calpeptin, reference compound]
- EC50 ([1]; Severe acute respiratory syndrome coronavirus 2, VERO-CCL81, RT-qPCR, 48 h post-infection, read-out: Viral titer EC50): 990 nM
- Viral titer (% control) ([1]; 0.0781 μM): 100 % control
- Viral titer (% control) ([1]; 0.1563 μM): 100 % control
- Viral titer (% control) ([1]; 0.3125 μM): 100 % control and 79.17 % control
- Viral titer (% control) ([1]; 0.625 μM): 59.82 % control and 89.92 % control
- Viral titer (% control) ([1]; 1.25 μM): 52.69 % control and 49.08 % control
- Viral titer (% control) ([1]; 2.5 μM): 27.29 % control and 39.96 % control
- Viral titer (% control) ([1]; 5 μM): 41.34 % control and 28.43 % control
- Viral titer (% control) ([1]; 10 μM): 15.97 % control and 10.75 % control
- cytotoxicity (in words) ([2]; LC-HK2, 72 h): no cytotoxicity up to low micromolar concentrations
- Cell viability (% control) ([2]; 0.0006 μM): 102.39 % control and 97.09 % control and 90.2 % control
- Cell viability (% control) ([2]; 0.0012 μM): 105.44 % control and 96.04 % control and 89.58 % control
- Cell viability (% control) ([2]; 0.0024 μM): 109.38 % control and 90.68 % control and 83.12 % control
- Cell viability (% control) ([2]; 0.0049 μM): 106.45 % control and 86.68 % control and 80.82 % control
- Cell viability (% control) ([2]; 0.0098 μM): 103.61 % control and 82.95 % control and 76.92 % control
- Cell viability (% control) ([2]; 0.0195 μM): 100.9 % control and 86.53 % control and 77.59 % control
- Cell viability (% control) ([2]; 0.0391 μM): 106.77 % control and 84.3 % control and 75.79 % control
- Cell viability (% control) ([2]; 0.0781 μM): 97.38 % control and 80.51 % control and 79.02 % control and 97.54 % control and 99.61 % control
- Cell viability (% control) ([2]; 0.1563 μM): 92.74 % control and 97.96 % control and 106.67 % control and 94.71 % control and 97.7 % control and 98.23 % control
- Cell viability (% control) ([2]; 0.3125 μM): 85.53 % control and 96.17 % control and 104.18 % control and 94.18 % control and 98.15 % control and 95.62 % control
- Cell viability (% control) ([2]; 0.625 μM): 92.03 % control and 97.64 % control and 102.17 % control and 95.74 % control and 98.42 % control and 100.55 % control
- Cell viability (% control) ([2]; 1.25 μM): 89.04 % control and 94.62 % control and 99.72 % control and 93.66 % control and 97.57 % control and 100.65 % control
- Cell viability (% control) ([2]; 2.5 μM): 87.58 % control and 93.98 % control and 97.34 % control and 91.87 % control and 96.78 % control and 96.3 % control
- Cell viability (% control) ([2]; 5 μM): 84.13 % control and 88.53 % control and 93.5 % control and 84.79 % control and 90.37 % control and 89.81 % control
- Cell viability (% control) ([2]; 10 μM): 82.98 % control and 84.95 % control and 87.98 % control and 79.13 % control and 81.86 % control and 83.76 % control
- Cell viability (% control) ([2]; 100 μM): 28.28 % control and 43.21 % control and 44.92 % control
- EC50 [3]: 183 ± 65 nM
- Residual activity (Vi/V0) ([4]; inhibitor 0.010 nM, 10 pM): 0.7492 and 0.8662 and 0.9665 and 0.9783 and 1.034 and 0.8959 and 1.049 and 1.043
- Residual activity (Vi/V0) ([4]; inhibitor 0.018 nM, 18 pM): 1.426 and 1.071 and 0.8111 and 0.946 and 1.016 and 0.7983 and 1.052 and 1.107
- Residual activity (Vi/V0) ([4]; inhibitor 0.032 nM, 32 pM): 0.6155 and 0.7103 and 0.8989 and 0.8852 and 0.9741 and 0.7786 and 1.073 and 1.106
- Residual activity (Vi/V0) ([4]; inhibitor 0.058 nM, 58 pM): 0.4678 and 0.5573 and 0.8821 and 0.907 and 0.9499 and 0.7317 and 1.135 and 1.04
- Residual activity (Vi/V0) ([4]; inhibitor 0.105 nM, 0.000105 µM): 0.3395 and 0.4697 and 0.9391 and 1.0131 and 0.8776 and 0.5515 and 1.047 and 0.9299
- Residual activity (Vi/V0) ([4]; inhibitor 0.189 nM, 0.000189 µM): 0.2218 and 0.3638 and 0.7852 and 0.7629 and 0.7844 and 0.3361 and 0.9055 and 0.7253
- Residual activity (Vi/V0) ([4]; inhibitor 0.340 nM, 0.00034 µM): 0.127 and 0.1861 and 0.5926 and 0.6199 and 0.6546 and 0.1805 and 0.6841 and 0.4951
- Residual activity (Vi/V0) ([4]; inhibitor 0.612 nM, 0.000612 µM): 0.08315 and 0.0899 and 0.6171 and 0.6648 and 0.6032 and 0.1116 and 0.3127 and 0.292
- Residual activity (Vi/V0) ([4]; inhibitor 1.103 nM, 0.001103 µM): 0.07258 and 0.065 and 0.4015 and 0.4879 and 0.4441 and 0.08067 and 0.1763 and 0.1568
- Residual activity (Vi/V0) ([4]; inhibitor 1.985 nM, 0.001985 µM): 0.02995 and 0.03856 and 0.2299 and 0.2925 and 0.2801 and 0.03165 and 0.06168 and 0.07508
- Residual activity (Vi/V0) ([4]; inhibitor 3.572 nM, 0.003572 µM): 0.007933 and 0.009299 and 0.124 and 0.1265 and 0.09125 and 0.0154 and 0.02738 and 0.02841
- Residual activity (Vi/V0) ([4]; inhibitor 6.430 nM, 0.00643 µM): 0.0062 and 0.004492 and 0.03048 and 0.04147 and 0.02591 and 0.007404 and 0.008251 and 0.01699
- Residual activity (Vi/V0) ([4]; inhibitor 11.547 nM, 0.011547 µM): 0.001379 and -0.0006257 and 0.001045 and 0.01451
- Viral titer (% control) ([5]; 0.0006 μM): 100 % control
- Viral titer (% control) ([5]; 0.0012 μM): 100 % control
- Viral titer (% control) ([5]; 0.0024 μM): 100 % control
- Viral titer (% control) ([5]; 0.0049 μM): 100 % control
- Viral titer (% control) ([5]; 0.0098 μM): 100 % control
- Viral titer (% control) ([5]; 0.0195 μM): 100 % control
- Viral titer (% control) ([5]; 0.0391 μM): 100 % control
- Viral titer (% control) ([5]; 0.0781 μM): 100 % control
- Viral titer (% control) ([5]; 0.1563 μM): 100 % control and 71.76 % control
- Viral titer (% control) ([5]; 0.3125 μM): 77.19 % control and 100 % control
- Viral titer (% control) ([5]; 0.625 μM): 85.89 % control and 100 % control
- Viral titer (% control) ([5]; 1.25 μM): 75.06 % control and 100 % control
- Viral titer (% control) ([5]; 100 μM): 0 % control
- EC50 ([5]; Severe acute respiratory syndrome coronavirus 2, LC-HK2, RT-qPCR, 72 h post-infection, read-out: Viral titer EC50): 1700 nM
- Residual activity (Vi/V0) ([6]; inhibitor 0.010 nM, 10 pM): 0.8228 and 0.7849 and 0.8924
- remaining activity at 10 pM ([6]; inhibitor 0.010 nM, read-out: Residual activity (Vi/V0)): 79.2%
- Residual activity (Vi/V0) ([6]; inhibitor 0.018 nM, 18 pM): 0.692 and 0.7935 and 0.8793 and 0.9792
- Residual activity (Vi/V0) ([6]; inhibitor 0.032 nM, 32 pM): 0.6266 and 0.7672 and 0.8012 and 0.8701
